Results on 14 compounds are retold here after US11786528B2, “Pyrazolopyrimidine compounds as adenosine receptor antagonists” (EXSCIENTIA LTD., priority 2018, dated 2023).

Values after ≈ are worked out from the molar mass of the structure shown. Where only a bound is given, the exact number is not on record here.

Broadly, the solubility is the concentration that dissolves in the medium under given conditions. Usually IC50 stands for the concentration that gives 50% inhibition. In general, EC50 refers to the concentration that produces a half-maximal response. High values mean weaker potency, low ones greater potency.

One data set in a line: Solubility. The data set is classed as physicochemical. As to conditions: water (or specific buffer), thermodynamic from solid, overnight stirring at ambient temperature, LC-UV. The source says: The test compound in solid form was suspended in water (or specific buffer). After overnight stirring at ambient temperature protected from light, suspensions were filtered. An aliquot of the resulting supernatant was quantified using LC-UV method against a reference solution in DMSO obtained by preparation from powder.

Data set [1] deals with human adenosine receptor sub-type A1 (Homo sapiens (Human), UniProt P30542). The data set is described as follows: Affinity for human adenosine A1 receptor by SPR. To be noted: for IC50: SPR, human A1 receptor; for Relative selectivity for A2a v. A1: from SPR IC50 values, rounded to 2 significant figures. Type of data set: binding. As for the experimental part:
(§1) Affinity for the human adenosine receptor sub-types (A2a, A2b, A1 and A3) was determined by surface plasmon resonance (SPR) using published methodologies (see below for further details).
(§2) Affinity for the human adenosine receptor sub-types (A2a, A2b, A1 and A3) was determined by SPR as described in Aristotelous, T., et al, Methods in Enzymology (2015), Volume 556, Chapter 23, pages 499-525 and Congreve, M., et al, J Med Chem (2012), Vol. 55, pages 1898-1903. The method used was analogous to the method used in Congreve, M., et al (see supplementary page S10) for the A2a receptor, but the wild type receptor was used rather than the proprietary StaR form.
(In general: SPR reads the build-up and loss of mass on a sensor chip optically.)

Data set [2] concerns the target human adenosine receptor sub-type A2b (Homo sapiens (Human), UniProt P29275). Nature of the data set: Affinity for human adenosine A2b receptor by SPR. Type of data set: binding. To be noted: for IC50: SPR, human A2b receptor; for Relative selectivity for A2a v. A2b: from SPR IC50 values, rounded to 2 significant figures. The protocol: as §1, §2
Data set [3] addresses human A2a receptors (HEK 293 transfected) (Homo sapiens (Human), UniProt P29274). The data set is described as follows: Inhibition of cAMP release in HEK-A2aR cells (HTRF, LANCE Ultra cAMP). Type of data set: cell-based. As to conditions: 3 nM NECA, 10 min. As for the experimental part: Functional activity was measured by inhibition of cAMP release in HEK cells (see below for further details).
To screen A2a receptor inhibitors by HTRF technology, about 500 HEK-A2aR cells (HEK 293 transfected with human A2a receptors) were treated with inhibitors in presence of stimulation buffer (1×HBSS, 5 mM HEPES, 0.1% BSA stabilizer, pH 7.4) supplemented with 30 μM phosphodiesterase inhibitor Rolipram (to prevent cAMP degradation). This stimulation was immediately followed by treatment with 3 nM standard A2aR agonist (NECA) for 10 min under gentle shaking at room temperature. After that, inhibition of cAMP release was determined directly using LANCE Ultra cAMP assay (Perkin Elmer TRF0263).
All analysis was performed using GraphPad Prism 7.0 (GraphPad Software, San Diego, USA). Results are given, as EC50 (M).
(In TR-FRET formats the signal depends on donor and acceptor labels being close together.)

Data set [4] has as its target human adenosine receptor sub-type A2a (wild type) (Homo sapiens (Human), UniProt P29274). Nature of the data set: Affinity for human adenosine A2a receptor by surface plasmon resonance (SPR). Type of data set: binding. As for the experimental part: as §1, §2
In data set [5] the target is human adenosine receptor sub-type A3 (Homo sapiens (Human), UniProt P0DMS8). Nature of the data set: Affinity for human adenosine A3 receptor by SPR. To be noted: for Relative selectivity for A2a v. A3: from SPR IC50 values, rounded to 2 significant figures. Type of data set: binding. The protocol:
as §1, §2

human adenosine receptor sub-type A1, sequence (P30542 whole entry): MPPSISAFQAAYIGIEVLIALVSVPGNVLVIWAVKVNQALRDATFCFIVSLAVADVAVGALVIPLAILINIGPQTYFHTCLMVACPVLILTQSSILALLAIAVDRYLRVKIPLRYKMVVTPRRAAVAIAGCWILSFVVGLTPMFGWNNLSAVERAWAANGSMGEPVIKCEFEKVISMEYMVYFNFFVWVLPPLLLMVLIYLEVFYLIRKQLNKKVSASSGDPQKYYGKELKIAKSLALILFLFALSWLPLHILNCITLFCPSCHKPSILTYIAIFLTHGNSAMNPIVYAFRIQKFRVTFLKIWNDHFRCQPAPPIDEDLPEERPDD
human adenosine receptor sub-type A2b, sequence (P29275 whole entry): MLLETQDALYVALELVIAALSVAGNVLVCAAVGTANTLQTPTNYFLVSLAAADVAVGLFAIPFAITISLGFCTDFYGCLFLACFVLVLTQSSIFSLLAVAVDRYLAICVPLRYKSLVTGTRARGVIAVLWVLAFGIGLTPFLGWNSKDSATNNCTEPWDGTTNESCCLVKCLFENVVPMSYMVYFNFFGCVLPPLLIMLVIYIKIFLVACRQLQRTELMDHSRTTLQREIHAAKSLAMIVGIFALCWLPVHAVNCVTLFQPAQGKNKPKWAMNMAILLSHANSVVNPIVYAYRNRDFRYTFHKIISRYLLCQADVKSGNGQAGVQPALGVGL
human A2a receptors (HEK 293 transfected), sequence (P29274 whole entry): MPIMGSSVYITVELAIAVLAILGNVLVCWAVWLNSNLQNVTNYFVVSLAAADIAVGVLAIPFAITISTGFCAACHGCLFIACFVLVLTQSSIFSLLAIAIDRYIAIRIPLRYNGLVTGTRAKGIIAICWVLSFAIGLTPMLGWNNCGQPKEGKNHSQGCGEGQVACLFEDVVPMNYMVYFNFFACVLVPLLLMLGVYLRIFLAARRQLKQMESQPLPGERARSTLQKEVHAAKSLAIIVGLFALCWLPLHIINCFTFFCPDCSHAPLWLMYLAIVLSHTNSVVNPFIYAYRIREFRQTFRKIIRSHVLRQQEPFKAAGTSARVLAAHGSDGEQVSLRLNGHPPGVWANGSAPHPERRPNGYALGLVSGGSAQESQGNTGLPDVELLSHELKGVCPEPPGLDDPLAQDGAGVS
human adenosine receptor sub-type A2a (wild type), sequence (P29274 whole entry): as above
human adenosine receptor sub-type A3, sequence (P0DMS8 whole entry): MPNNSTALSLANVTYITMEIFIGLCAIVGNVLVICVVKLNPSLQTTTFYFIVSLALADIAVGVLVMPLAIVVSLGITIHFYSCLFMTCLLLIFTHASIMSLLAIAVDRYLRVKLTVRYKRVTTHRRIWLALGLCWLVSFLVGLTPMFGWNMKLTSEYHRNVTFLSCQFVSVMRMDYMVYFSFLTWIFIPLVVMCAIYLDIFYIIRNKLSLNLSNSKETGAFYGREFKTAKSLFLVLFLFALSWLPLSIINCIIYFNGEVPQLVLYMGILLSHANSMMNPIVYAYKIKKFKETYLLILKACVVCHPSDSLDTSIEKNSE

`COc1ccccc1Cn1cc2c(N)nc(-c3ccc(C)o3)nc2n1` [Comparative Example 1, reference compound]: the solubility in “Solubility” was 1 µg/mL (≈ 2.98 µM). In addition, the 50% inhibitory concentration (IC50) in data set [1] stood at 114 nM; in data set [2] it was 4910 nM; in data set [4], 2.2 nM; in data set [5] (SPR, human A3 receptor), 1970 nM. Moreover, in data set [1], the “Relative selectivity for A2a v. A1” value was 51. In addition, the “Relative selectivity for A2a v. A2b” value in data set [2] came out at 2200. Besides, in data set [3], the EC50 is 18 nM. The “Relative selectivity for A2a v. A3” value in data set [5] was determined as 900.

Take `COc1cccc(Cn2cc3c(N)nc(-c4nccs4)nc3n2)c1` [Example 8, 2-[(3-methoxyphenyl)methyl]-6-(1,3-thiazol-2-yl)-2H-pyrazolo[3,4-d]pyrimidin-4-amine]: the solubility in the data set “Solubility” was greater than 10 µg/mL. Also, the concentration giving a half-maximal response (EC50) in data set [3] worked out at 23 nM. For the same compound, in data set [4], 11 nM corresponded to half-maximal inhibition (IC50).

With `COc1cccc(Cn2cc3c(N)nc(-c4ccsn4)nc3n2)c1` [Example 10, 2-[(3-methoxyphenyl)methyl]-6-(1,2-thiazol-3-yl)-2H-pyrazolo[3,4-d]pyrimidin-4-amine], the IC50 in data set [1] was determined as 680 nM; in data set [2], 690 nM; in data set [4], 5.1 nM; in data set [5] (SPR, human A3 receptor) it was 60000 nM. Besides, in data set [1], the “Relative selectivity for A2a v. A1” value is on record as 130. Besides, the “Relative selectivity for A2a v. A2b” value in data set [2] was 140. In data set [3], this compound registered an EC50 of 235 nM. In data set [5], the “Relative selectivity for A2a v. A3” value was 12000.

Turning to `COc1cccc(Cn2cc3c(N)nc(-c4cnco4)nc3n2)c1` [Example 11, 2-[(3-methoxyphenyl)methyl]-6-(1,3-oxazol-5-yl)-2H-pyrazolo[3,4-d]pyrimidin-4-amine], in the data set “Solubility”, the solubility was greater than 10 µg/mL. Also, the 50% inhibitory concentration (IC50) in data set [1] stood at 350 nM; in data set [2], 580 nM; in data set [4] it was 4.9 nM; in data set [5] (SPR, human A3 receptor), 21000 nM. Also, in data set [1], the “Relative selectivity for A2a v. A1” value stood at 71. Also, the “Relative selectivity for A2a v. A2b” value in data set [2] is 120. For the same compound, the EC50 in data set [3] worked out at 70 nM. Further, the “Relative selectivity for A2a v. A3” value in data set [5] amounted to 4300.

`Cc1ccc(Cn2cc3c(N)nc(-c4cnccn4)nc3n2)cc1` [Example 12, 2-[(4-methylphenyl)methyl]-6-(pyrazin-2-yl)-2H-pyrazolo[3,4-d]pyrimidin-4-amine]: the IC50 in data set [1] came out at 7300 nM; in data set [2] it was 9000 nM; in data set [4] it was 7.9 nM; in data set [5] (SPR, human A3 receptor) it was 38800 nM. Also, the “Relative selectivity for A2a v. A1” value in data set [1] is given as 920. Moreover, the “Relative selectivity for A2a v. A2b” value in data set [2] stood at 1100. In addition, the EC50 in data set [3] is 199 nM. Besides, the “Relative selectivity for A2a v. A3” value in data set [5] is 4900.

Regarding `Cc1ccc(Cn2cc3c(N)nc(-c4ccsn4)nc3n2)cc1F` [Example 19, 2-[(3-fluoro-4-methylphenyl)methyl]-6-(1,2-thiazol-3-yl)-2H-pyrazolo[3,4-d]pyrimidin-4-amine], in the data set “Solubility”, the solubility is greater than 5 µg/mL. Moreover, in data set [1], it took 1180 nM to reach half-maximal inhibition (IC50) and the “Relative selectivity for A2a v. A1” value came to 210. In data set [2], the half-inhibitory concentration (IC50) worked out at 1450 nM and the “Relative selectivity for A2a v. A2b” value is 260. Further, the midpoint of the response in data set [3], the EC50, lay at 84 nM. The half-inhibitory concentration (IC50) in data set [4] stood at 5.6 nM. Further, in data set [5] (SPR, human A3 receptor), the “A3 SPR IC50” value is “Non-”. Moreover, the “Relative selectivity for A2a v. A3” value in data set [5] is given as greater than 10000.

With `Cc1ccc(Cn2cc3c(N)nc(-c4ccsn4)nc3n2)cc1C(F)(F)F` [Example 24, 2-{[4-methyl-3-(trifluoromethyl)phenyl]methyl}-6-(1,2-thiazol-3-yl)-2H-pyrazolo[3,4-d]pyrimidin-4-amine], the IC50 amounted to 1420 nM in data set [1]; 25600 nM in data set [2]; 7.9 nM in data set [4]; 49900 nM in data set [5] (SPR, human A3 receptor). In addition, the “Relative selectivity for A2a v. A1” value in data set [1] amounted to 180. Moreover, the “Relative selectivity for A2a v. A2b” value in data set [2] turned out to be 3200. Also, in data set [3], the EC50 is 11 nM. In addition, the “Relative selectivity for A2a v. A3” value in data set [5] is reported as 6300.

In the case of `Cc1cccc(Cn2cc3c(N)nc(-c4cnccn4)nc3n2)c1` [Example 27, 2-[(3-methylphenyl)methyl]-6-(pyrazin-2-yl)-2H-pyrazolo[3,4-d]pyrimidin-4-amine], the solubility in the data set “Solubility” was greater than 50 µg/mL. Further, the response in data set [3] was half-maximal at 7 nM (EC50). The IC50 in data set [4] amounted to 3.2 nM.

Consider `Nc1nc(-c2ccsn2)nc2nn(Cc3cccc(Cl)c3)cc12` [Example 35, 2-[(3-chlorophenyl)methyl]-6-(1,2-thiazol-3-yl)-2H-pyrazolo[3,4-d]pyrimidin-4-amine], for which the solubility in the data set “Solubility” was greater than 10 µg/mL. Further, the concentration for half-maximal inhibition (IC50) in data set [1] was 290 nM; in data set [2] it was 530 nM; in data set [4], 4.2 nM; in data set [5] (SPR, human A3 receptor), 4700 nM. Moreover, in data set [1], the “Relative selectivity for A2a v. A1” value is recorded as 69. In addition, in data set [2], the “Relative selectivity for A2a v. A2b” value came out at 130. The compound also displayed an EC50 in data set [3] of 60 nM. The “Relative selectivity for A2a v. A3” value in data set [5] is 1100.

`COc1ccccc1Cn1cc2c(N)nc(-c3cnccn3)nc2n1` [Example 37, 2-[(2-methoxyphenyl)methyl]-6-(pyrazin-2-yl)-2H-pyrazolo[3,4-d]pyrimidin-4-amine] registered a solubility in the data set “Solubility” greater than 10 µg/mL. The same compound came in with an EC50 in data set [3] of 82 nM. Also, half-maximal inhibition in data set [4] (IC50) was put at 2.7 nM.

Regarding `COc1ccccc1Cn1cc2c(N)nc(-c3ccsn3)nc2n1` [Example 38, 2-[(2-methoxyphenyl)methyl]-6-(1,2-thiazol-3-yl)-2H-pyrazolo[3,4-d]pyrimidin-4-amine], the 50% inhibitory concentration (IC50) in data set [1] stood at 3400 nM; in data set [2], 11700 nM; in data set [4] it was 4.3 nM; in data set [5] (SPR, human A3 receptor), 44300 nM. The “Relative selectivity for A2a v. A1” value in data set [1] came to 790. For the same compound, in data set [2], the “Relative selectivity for A2a v. A2b” value was determined as 2700. Further, the EC50 in data set [3] is 13 nM. In addition, in data set [5], the “Relative selectivity for A2a v. A3” value was 10000.

As for `COc1ccccc1Cn1cc2c(N)nc(-c3cnco3)nc2n1` [Example 40, 2-[(2-methoxyphenyl)methyl]-6-(1,3-oxazol-5-yl)-2H-pyrazolo[3,4-d]pyrimidin-4-amine], the 50% inhibitory concentration (IC50) was 990 nM in data set [1]; 1460 nM in data set [2]; 2 nM in data set [4]; 46200 nM in data set [5] (SPR, human A3 receptor). For the same compound, the “Relative selectivity for A2a v. A1” value in data set [1] worked out at 500. Moreover, the “Relative selectivity for A2a v. A2b” value in data set [2] was 730. Moreover, the half-maximal effective concentration (EC50) in data set [3] was found to be 13 nM. The “Relative selectivity for A2a v. A3” value in data set [5] stood at 23000.

In “Solubility”, `COc1ccc(Cn2cc3c(N)nc(-c4cnccn4)nc3n2)cc1OC` [Example 41, 2-[(3,4-dimethoxyphenyl)methyl]-6-(pyrazin-2-yl)-2H-pyrazolo[3,4-d]pyrimidin-4-amine] showed a solubility greater than 50 µg/mL. Moreover, the IC50 in data set [4] was 589 nM.

Turning to `Nc1nc(-c2ccsn2)nc2nn(Cc3ccccc3O)cc12` [Example 44, 2-{[4-amino-6-(1,2-thiazol-3-yl)-2H-pyrazolo[3,4-d]pyrimidin-2-yl]methyl}phenol], the solubility in the data set “Solubility” was greater than 50 µg/mL. Further, the midpoint of the response in data set [3], the EC50, lay at 127 nM. In data set [4], this compound gave an IC50 of 15 nM.
